Consider one compound from patent publication US20140194477A1, “KINASE PROTEIN BINDING INHIBITORS” (Roswell Park Cancer Institute, priority 2011, published 2014).

In this data set the test system is CD-1 mice. As to the kind of experiment: 28-day multiple-dose toxicologic study, IP, CD-1 mice. In kind it is in vivo, mouse. Here is the method:
A 28-day, multiple-dose toxicologic study of the chemical 1,2,4,5-Benzenetetramine tetrahydrochloride was performed in CD-1 mice.
• 1,2,4,5-benzenetetramine tetrahydrochloride. The test article was prepared in PBS (physiologic buffered saline). The test article was prepared by the sponsor and delivered to the study director prior to the study. The test article was stored in the freezer (0° C.), protected from light.
• PBS (physiologic buffered saline), • Test System: • The CD-1 [Hsd:ICR(CD-l)] albino mouse was used. The CD-1 mouse is conventionally used in 28 day toxicity tests to provide information on which human hazards can be judged, and is one of the choices of species preferred by regulatory agencies. Mice were obtained from Harlan (Frederick, MD). • Mice were acclimated for 2 days prior to testing. 12 male and 12 female mice, nulliparous and non-pregnant, were used. Normal weight gain, appearance and behavior were factors used to select healthy mice for testing. Only naive animals were used. Mice were 7 weeks old (males) and 9 weeks old (females), weighed 21-26 grams (males) and 17-23 grams (females), and were in good health at the start of the study. Mice were 11 weeks old (males) and 13 weeks old (females), weighed 20-32 grams (males) and 19-26 grams (females) at the conclusion of the study. • Mice were randomly assigned to 4 experimental groups (high-dose, medium-dose, low-dose, and controls) consisting of 3 males and 3 females. Mice were identified via cage cards, tail markings, and ear punch. Mouse identification is summarized in Table 1. • Mice were fed autoclaved Harlan-Teklad sterilizable 7012 mouse/rat diet ad libitum. The feed is routinely analyzed by the manufacturer for nutritional components and environmental contaminants. Tap water acidified to a pH of 2.5-3.5 was provided in autoclaved water bottles ad libitum. Municipal water supply is analyzed by the Bureau Veritas Consumer Product Services of Buffalo, N.Y. on an annual basis. There are no known contaminants in the feed or water provided to the test animals that would be expected to interfere with this study. • Mice were group-housed, 3 to a cage, in autoclaved polycarbonate/polysulfone microisolator cages with autoclaved contact bedding (bed ′o cobs, Anderson's Industrial Products Group). • Environmental conditions in the animal housing room were maintained at an ambient temperature of 70±3°, relative humidity of 30-70%, and a 12:12 light-dark cycle. Animal housing rooms were ventilated with 100% fresh, HEPA filtered air with 10-15 air changes per hour.
• A 28-day multiple-dose toxicology study was performed.
The test article (1,2,4,5-benzenetetramine tetrahydrochloride) was prepared in PBS (the control article) and administered intraperiotoneally (IP) as 20 doses once daily on days 0-4, 7-11, 14-18, and 21-25 in the morning. The compound was diluted so as not to exceed a volume of 0.1 mL.
The test article (1,2,4,5-benzenetetramine tetrahydrochloride) was stored in the freezer (0° C.) and thawed to room temperature prior to injection. Mice were randomly allocated into 4 groups (control, low-dose, medium-dose, and high-dose) consisting of 3 males and 3 females, Dosages were calculated on a “per mouse” basis, not on a mg/kg basis. Mice in the low-dose group received the equivalent of a 15 mg/kg dose for a 20 g mouse (0.3 mg). Mice in the medium-dose group received the equivalent of a 30 mg/kg dose for a 20 g mouse (0.6 mg). Mice in the high-dose group received the equivalent of a 45 mg/kg dose for a 20 g mouse (0.9 mg). Mice in the control group received 0.1 mL of PBS (phosphate-buffered saline). Groups received the following doses, as outlined in table 1: […]

The mark [1] stands for this setting: IP, 28-day study, high-dose group.

Regarding `Cl.Cl.Cl.Cl.Nc1cc(N)c(N)cc1N` [Y15, 1,2,4,5-benzenetetraamine tetrahydrochloride], the “toxicity (summary statement)” value (30 mg/kg by ip administration, duration 28 days) was “no toxicity”. Further, the pain following injection entry (IP, 20 daily doses over 28 days, 15, 30, 45 mg/kg equivalent) is given as “pain following injection in all dose groups”. Moreover, the clinical chemistry changes entry (IP, 28-day study) was “not associated with any changes in clinical chemistry that were statistically and clinically significant”. The “gross and histopathologic findings” value (IP, 28-day study, all dose groups) is “gross and histopathologic peritonitis in mice in all dose groups”. Besides, the mean body weights result (IP, 28-day study, high dose group (45 mg/kg equivalent)) is reported as “statistically significant lowered mean body weights”. Under setting [1], the hematologic changes entry is “Some statistically and clinically significant hematologic changes”; the mortality entry is “unexpected mortality in the high-dose group”. For the same compound, for the setting “IP, 28-day study, medium (30 mg/kg) and high (45 mg/kg) dose groups”, the clinical signs result was “clinical signs consistent with general malaise and peritonitis”. In addition, the weight loss result (IP, 28-day study, medium- and high-dose groups) is “weight loss in the medium- and high-dose groups”.
